Measured values from ChEMBL document CHEMBL1201862, “PubChem BioAssay data set” (2004).
The source made the active and inactive calls.

Legend:
Danio rerio = assay: In Vivo Angiogenesis Dose-Response Confirmation. [Related pubchem assays: 732 (Assay preceding this confirmatory assay.)]; type: functional, organism-based
[1] = fluconazole-exposed Candida albicans growth modulators – fluorescence, retest, confirmation (AID 2467); type: functional, cell-based
[2] = NIH-3T3 fibroblast cytotoxicity, dose response, cytotoxicity control, cell-based, fluorescence, Alamar Blue, secondary assay (AID 2327); type: functional;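 further: NIH-3T3 mouse fibroblasts cultured with fluconazole at 8 µg/mL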
[3] = molecular target: Voltage-gated inwardly rectifying potassium channel KCNH2 (Homo sapiens, UniProt Q12809); assay: concentration-dependent hERG rescue from blockers – cell-based, thallium flux, dose response (AID 2121); type: ADME
Chain of Voltage-gated inwardly rectifying potassium channel KCNH2 (Q12809 whole entry): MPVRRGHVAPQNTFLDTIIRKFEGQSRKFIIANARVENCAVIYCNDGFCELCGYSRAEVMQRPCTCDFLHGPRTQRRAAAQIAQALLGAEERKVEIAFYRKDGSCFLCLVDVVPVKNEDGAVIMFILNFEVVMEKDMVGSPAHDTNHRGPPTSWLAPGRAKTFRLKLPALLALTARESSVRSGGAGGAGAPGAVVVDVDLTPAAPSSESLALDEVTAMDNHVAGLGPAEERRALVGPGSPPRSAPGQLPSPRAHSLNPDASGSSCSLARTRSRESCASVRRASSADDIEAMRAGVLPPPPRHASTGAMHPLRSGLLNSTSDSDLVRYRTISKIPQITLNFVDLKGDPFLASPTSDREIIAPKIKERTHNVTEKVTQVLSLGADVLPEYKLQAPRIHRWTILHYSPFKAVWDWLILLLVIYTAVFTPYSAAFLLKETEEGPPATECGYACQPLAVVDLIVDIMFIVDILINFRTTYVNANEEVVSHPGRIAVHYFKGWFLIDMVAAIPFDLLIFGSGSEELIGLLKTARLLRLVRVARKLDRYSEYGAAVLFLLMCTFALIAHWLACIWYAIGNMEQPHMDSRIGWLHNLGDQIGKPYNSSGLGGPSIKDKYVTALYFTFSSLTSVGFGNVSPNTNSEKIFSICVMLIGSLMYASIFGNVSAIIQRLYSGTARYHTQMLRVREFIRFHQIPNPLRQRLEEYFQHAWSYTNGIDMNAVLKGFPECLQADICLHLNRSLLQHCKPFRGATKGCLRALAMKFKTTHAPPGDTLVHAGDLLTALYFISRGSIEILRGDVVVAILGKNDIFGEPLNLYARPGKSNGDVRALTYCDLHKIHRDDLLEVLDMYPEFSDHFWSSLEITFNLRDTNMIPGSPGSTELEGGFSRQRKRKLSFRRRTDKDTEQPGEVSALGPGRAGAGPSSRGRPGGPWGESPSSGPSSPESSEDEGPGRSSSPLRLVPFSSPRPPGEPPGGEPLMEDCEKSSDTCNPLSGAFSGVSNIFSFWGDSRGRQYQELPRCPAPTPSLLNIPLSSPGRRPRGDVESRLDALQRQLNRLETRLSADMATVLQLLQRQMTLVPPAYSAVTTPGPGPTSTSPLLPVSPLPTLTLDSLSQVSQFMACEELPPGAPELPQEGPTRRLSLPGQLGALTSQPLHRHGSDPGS

[4] = THP-1 cell cytotoxicity, dose response, cytotoxicity control for non-replicating M. tuberculosis project (AID 489025); type: functional
[5] = microbe, parasite or virus in culture; type: functional; details: Mycobacterium tuberculosis
[6] = molecular target: Neuropeptide Y receptor type 2 (Homo sapiens, UniProt P49146); assay: IC50 for human NPY-Y2 blockade – cell-based, counter-screen for NPY-Y1 antagonist project, dose response (AID 1278); type: functional
Chain of Neuropeptide Y receptor type 2 (P49146 whole entry): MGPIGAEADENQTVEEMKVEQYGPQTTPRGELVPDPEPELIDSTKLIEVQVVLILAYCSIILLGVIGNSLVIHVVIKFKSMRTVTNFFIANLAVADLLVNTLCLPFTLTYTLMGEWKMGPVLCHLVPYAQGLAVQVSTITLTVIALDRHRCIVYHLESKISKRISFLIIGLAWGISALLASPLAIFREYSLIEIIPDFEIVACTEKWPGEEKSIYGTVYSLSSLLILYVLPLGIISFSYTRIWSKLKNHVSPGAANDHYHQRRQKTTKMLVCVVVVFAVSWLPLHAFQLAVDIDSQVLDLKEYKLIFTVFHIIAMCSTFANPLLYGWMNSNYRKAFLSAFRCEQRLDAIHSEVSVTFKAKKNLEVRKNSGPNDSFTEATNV

[7] = molecular target: Neuropeptide Y receptor type 1 (Homo sapiens, UniProt P25929); assay: IC50 of human NPY-Y1 blockers – cell-based, dose response (AID 1277); type: functional
Chain of Neuropeptide Y receptor type 1 (P25929 whole entry): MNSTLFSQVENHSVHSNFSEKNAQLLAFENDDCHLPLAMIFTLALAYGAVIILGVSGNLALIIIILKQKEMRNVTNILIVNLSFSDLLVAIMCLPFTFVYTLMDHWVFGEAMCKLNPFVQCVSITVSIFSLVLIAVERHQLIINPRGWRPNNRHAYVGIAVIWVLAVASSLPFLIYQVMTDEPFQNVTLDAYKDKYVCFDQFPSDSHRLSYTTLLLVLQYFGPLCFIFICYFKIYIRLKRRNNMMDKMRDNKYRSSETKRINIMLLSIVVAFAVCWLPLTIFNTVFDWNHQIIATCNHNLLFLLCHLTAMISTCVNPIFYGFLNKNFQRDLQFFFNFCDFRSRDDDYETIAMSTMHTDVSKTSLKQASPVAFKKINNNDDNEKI

cells = type: functional
[8] = Vero E6 cell cytotoxicity, dose response, cytotoxicity control for non-replicating M. tuberculosis project, secondary assay (AID 492998); type: functional, VeroE6; details: Vero C1008
[9] = molecular target: T1, Heat shock factor protein 1 (Mus musculus, UniProt P38532); assay: enhancement of HSF1-driven luciferase signal – cell-based, NIH3T3, luminescence, dose retest, confirmation (AID 435004); type: functional;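 further: stress induced by proteasome inhibitor MG132 added 30 min after compound; luciferase reporter driven by HSF1 response element in NIH3T3 cells; actives raise luminescence as potentiators of the MG132 stress response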
T1 sequence (P38532 whole entry): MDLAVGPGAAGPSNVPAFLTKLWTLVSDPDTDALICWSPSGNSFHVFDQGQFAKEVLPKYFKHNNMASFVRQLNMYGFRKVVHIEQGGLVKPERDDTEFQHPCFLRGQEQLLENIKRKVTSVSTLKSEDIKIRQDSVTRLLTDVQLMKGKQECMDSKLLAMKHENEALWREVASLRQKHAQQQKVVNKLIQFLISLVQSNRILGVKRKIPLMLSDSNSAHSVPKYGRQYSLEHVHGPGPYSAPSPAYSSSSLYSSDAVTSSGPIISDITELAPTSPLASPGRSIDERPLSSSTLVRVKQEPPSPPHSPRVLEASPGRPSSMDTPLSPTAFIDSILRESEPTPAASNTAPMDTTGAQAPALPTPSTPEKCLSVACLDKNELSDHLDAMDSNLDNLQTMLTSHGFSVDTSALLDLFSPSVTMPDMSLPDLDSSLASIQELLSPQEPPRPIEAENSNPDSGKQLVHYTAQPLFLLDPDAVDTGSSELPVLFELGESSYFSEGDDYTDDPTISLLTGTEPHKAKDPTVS

[10] = general cell-killing toxicity readout – plate reader, dry powder samples, cytotoxicity control for PAX8 inhibitor project, dose response (AID 743021); type: functional, cell-based
[11] = Luminescent dose response cell-based high throughput screening assay for inhibitors of the Janus kinase 2 mutant JAK2V617F. [Related pubchem assays: 1446 (Primary screen.), 1521 (Confirmation assay.), 1486 (Counter screen.)]; type: functional
[12] = Fluorescence-based cell-based high throughput dose response assay for inhibitors of the interaction of nucleotide-binding oligomerization domain containing 2 (NOD2) and the receptor-interacting serine-threonine kinase 2 (RIPK2).; type: functional; details: Homo sapiens
[13] = molecular target: T2, Replicative DNA helicase DnaB (Mycobacterium tuberculosis, UniProt P9WMR3); assay: DnaB intein splicing inhibitors, dose response, biochemical, cell-free fluorescence (AID 449749); type: functional
T2 sequence (P9WMR3 whole entry): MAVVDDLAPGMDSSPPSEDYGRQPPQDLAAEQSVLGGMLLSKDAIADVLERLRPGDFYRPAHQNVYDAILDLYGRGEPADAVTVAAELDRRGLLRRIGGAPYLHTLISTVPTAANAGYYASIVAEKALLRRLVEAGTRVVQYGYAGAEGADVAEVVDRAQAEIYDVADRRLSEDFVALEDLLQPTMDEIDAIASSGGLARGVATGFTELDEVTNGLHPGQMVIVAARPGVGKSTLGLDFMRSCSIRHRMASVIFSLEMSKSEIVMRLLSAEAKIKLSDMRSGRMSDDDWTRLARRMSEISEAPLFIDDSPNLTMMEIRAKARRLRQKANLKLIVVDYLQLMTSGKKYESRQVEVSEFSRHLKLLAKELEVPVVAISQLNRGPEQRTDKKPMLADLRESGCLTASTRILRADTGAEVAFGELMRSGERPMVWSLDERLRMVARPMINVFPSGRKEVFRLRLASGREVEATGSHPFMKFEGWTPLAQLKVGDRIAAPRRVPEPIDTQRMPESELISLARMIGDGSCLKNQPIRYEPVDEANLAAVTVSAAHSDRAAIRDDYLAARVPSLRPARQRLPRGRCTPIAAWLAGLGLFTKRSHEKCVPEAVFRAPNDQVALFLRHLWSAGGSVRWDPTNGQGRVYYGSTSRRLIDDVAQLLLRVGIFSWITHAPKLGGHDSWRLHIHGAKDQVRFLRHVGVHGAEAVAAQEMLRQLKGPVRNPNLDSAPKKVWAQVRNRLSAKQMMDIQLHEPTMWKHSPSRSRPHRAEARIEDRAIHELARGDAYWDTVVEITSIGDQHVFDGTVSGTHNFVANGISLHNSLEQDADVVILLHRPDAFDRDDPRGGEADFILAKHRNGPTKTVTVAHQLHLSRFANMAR

[14] = HepG2 cell cytotoxicity, dose response, cytotoxicity control for non-replicating M. tuberculosis project (AID 489018); type: functional; details: Mycobacterium tuberculosis
Protein RecA = molecular target: T3, Protein RecA (Mycobacterium tuberculosis, UniProt P9WHJ3); assay: Fluorescence Cell-Free Homogeneous Dose Retest to Identify Inhibitors of RecA-Intein Splicing Activity. [Related pubchem assays (depositor defined):AID2097, AID2223, AID489010, AID492950]; type: functional
T3 sequence (P9WHJ3 whole entry): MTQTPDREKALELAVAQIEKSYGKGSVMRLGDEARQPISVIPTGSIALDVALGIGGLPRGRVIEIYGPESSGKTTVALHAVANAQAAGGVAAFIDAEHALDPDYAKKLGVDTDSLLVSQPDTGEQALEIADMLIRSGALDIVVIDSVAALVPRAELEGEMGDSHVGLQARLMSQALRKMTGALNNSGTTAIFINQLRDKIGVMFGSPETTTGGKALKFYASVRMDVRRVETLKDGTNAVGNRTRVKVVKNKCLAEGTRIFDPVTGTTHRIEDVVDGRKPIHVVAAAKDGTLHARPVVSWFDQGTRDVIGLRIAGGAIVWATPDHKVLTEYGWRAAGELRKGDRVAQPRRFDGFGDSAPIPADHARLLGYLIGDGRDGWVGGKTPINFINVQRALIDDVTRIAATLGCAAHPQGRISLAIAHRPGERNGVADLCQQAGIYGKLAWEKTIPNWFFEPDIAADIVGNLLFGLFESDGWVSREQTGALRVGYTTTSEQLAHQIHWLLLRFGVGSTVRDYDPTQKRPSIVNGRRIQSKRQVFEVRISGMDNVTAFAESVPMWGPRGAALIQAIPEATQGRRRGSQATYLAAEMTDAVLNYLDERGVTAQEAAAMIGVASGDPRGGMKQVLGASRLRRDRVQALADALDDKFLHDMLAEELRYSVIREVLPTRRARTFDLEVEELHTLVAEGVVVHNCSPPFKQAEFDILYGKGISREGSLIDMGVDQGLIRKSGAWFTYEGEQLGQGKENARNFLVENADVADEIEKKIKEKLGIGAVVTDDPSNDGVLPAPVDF

Paired box protein Pax-8 = Paired box protein Pax-8 (Homo sapiens, UniProt Q06710); assay: PAX8 transcriptional activity inhibition in RMG-I – RMG-I cells, luciferase, cherry-pick, dose response (AID 687027); type: functional, cell-based;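 further: luciferase reporter driven by Pax8 target thyroperoxidase promoter measured by SteadyGlo luminescence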
Chain of Paired box protein Pax-8 (Q06710 whole entry): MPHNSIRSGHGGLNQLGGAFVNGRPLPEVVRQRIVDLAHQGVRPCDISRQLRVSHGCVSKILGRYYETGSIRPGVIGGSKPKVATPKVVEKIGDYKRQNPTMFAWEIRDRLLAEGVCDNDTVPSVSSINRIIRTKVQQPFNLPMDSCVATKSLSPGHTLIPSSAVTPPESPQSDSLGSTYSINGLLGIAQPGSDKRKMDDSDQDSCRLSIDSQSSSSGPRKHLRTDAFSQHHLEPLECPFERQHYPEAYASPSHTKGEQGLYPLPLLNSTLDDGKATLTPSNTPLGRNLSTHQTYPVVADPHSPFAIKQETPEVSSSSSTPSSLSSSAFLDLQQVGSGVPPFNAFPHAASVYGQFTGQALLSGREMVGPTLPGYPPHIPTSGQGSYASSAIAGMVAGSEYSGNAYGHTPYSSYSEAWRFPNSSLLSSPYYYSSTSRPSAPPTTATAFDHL

[15] = molecular target: Sphingosine 1-phosphate receptor 2 (Homo sapiens, UniProt O95136); assay: Dose Response Cell Based Assay for Agonists of the S1P2 Receptor of Purchased Analogues. [Related pubchem assays: 729, 843, 854, 736 ]; type: functional
Chain of Sphingosine 1-phosphate receptor 2 (O95136 whole entry): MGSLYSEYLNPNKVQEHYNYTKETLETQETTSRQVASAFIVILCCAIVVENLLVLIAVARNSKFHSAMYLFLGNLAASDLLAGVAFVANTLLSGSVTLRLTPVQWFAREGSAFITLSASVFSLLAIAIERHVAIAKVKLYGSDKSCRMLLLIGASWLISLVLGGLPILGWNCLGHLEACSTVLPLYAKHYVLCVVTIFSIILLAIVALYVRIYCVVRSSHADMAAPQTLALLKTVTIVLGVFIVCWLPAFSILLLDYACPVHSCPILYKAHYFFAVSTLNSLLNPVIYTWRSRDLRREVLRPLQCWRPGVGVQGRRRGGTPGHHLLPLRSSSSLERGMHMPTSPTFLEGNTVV

Galanin receptor type 2 = Galanin receptor type 2 (Homo sapiens, UniProt O43603); assay: Dose Response cell-based high-throughput screening assay to identify antagonists of galanin receptor 2 (GALR2). [Related pubchem assays: 828, 866 ]; type: functional
Chain of Galanin receptor type 2 (O43603 whole entry): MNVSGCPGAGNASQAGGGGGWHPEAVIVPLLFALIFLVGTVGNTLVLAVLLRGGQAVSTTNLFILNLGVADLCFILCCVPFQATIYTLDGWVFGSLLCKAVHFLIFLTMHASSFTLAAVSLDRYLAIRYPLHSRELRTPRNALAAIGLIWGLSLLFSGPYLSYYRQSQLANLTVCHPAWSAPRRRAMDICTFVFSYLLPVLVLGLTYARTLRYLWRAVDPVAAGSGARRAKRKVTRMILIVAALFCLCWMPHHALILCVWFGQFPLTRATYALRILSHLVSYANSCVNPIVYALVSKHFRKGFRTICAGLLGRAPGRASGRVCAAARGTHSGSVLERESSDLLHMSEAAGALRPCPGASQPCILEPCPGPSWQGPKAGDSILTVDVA

Caspase-6 = Caspase-6 (Homo sapiens, UniProt P55212); assay: inhibition of CASP6 peptide cleavage – biochemical, VEID-R110 fluorescence, cherry-pick, dose response (AID 720632)
Chain of Caspase-6 (P55212 24-179 limits assumed): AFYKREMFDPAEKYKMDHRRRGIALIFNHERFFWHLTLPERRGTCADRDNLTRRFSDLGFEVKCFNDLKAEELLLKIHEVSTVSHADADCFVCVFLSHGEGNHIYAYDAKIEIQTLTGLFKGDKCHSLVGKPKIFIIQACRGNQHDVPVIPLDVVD
Chain of Caspase-6 (P55212 194-293 limits assumed): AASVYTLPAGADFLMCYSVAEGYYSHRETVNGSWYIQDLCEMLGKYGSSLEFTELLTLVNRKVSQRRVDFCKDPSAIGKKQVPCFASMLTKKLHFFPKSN

[16] = antiviral protection against BTV-induced cell death – arbovirus, BSR cells, confirmation (AID 1250); type: functional;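 further: protection from viral cytopathic effect measured as cell viability by ATP luminescence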
Cytochrome P450 2C19 = Cytochrome P450 2C19 (Homo sapiens, UniProt P33261); assay: qHTS Assay for Inhibitors and Substrates of Cytochrome P450 2C19. [Related pubchem assays: 410 ]; type: ADME; details: read-out: Potency
Chain of Cytochrome P450 2C19 (P33261 whole entry): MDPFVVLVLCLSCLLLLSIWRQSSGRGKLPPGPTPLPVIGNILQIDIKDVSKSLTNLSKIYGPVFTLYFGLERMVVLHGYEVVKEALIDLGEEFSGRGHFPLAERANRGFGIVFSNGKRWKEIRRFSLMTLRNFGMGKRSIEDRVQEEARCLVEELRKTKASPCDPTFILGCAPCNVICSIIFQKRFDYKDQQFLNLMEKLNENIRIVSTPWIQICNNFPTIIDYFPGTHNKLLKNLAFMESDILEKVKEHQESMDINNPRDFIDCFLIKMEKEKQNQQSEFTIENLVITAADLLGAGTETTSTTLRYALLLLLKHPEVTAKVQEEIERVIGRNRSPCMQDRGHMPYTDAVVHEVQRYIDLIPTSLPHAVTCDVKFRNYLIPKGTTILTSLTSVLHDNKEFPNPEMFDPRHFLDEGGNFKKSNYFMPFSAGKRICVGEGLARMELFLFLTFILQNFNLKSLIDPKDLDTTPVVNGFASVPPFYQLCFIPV

Cytochrome P450 2C9 = Cytochrome P450 2C9 (Homo sapiens, UniProt P11712); details: Potency
Chain of Cytochrome P450 2C9 (P11712 whole entry): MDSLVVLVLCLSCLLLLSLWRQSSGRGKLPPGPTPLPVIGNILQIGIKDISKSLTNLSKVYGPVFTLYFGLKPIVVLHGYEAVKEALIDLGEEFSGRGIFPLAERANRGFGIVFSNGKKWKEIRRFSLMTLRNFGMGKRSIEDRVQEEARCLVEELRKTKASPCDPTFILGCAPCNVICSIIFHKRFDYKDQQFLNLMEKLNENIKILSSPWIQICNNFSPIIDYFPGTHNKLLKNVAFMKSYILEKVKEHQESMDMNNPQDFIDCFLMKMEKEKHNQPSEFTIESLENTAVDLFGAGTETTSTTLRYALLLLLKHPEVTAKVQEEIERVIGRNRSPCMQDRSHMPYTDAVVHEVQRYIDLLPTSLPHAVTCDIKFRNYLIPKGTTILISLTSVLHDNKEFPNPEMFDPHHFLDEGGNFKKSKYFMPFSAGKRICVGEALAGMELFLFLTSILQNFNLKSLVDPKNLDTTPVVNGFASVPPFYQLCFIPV

NADPH oxidase 1 [17] = molecular target: T4, NADPH oxidase 1 (Homo sapiens, UniProt Q9Y5S8); type: functional, cell-based
T4 sequence (Q9Y5S8 whole entry): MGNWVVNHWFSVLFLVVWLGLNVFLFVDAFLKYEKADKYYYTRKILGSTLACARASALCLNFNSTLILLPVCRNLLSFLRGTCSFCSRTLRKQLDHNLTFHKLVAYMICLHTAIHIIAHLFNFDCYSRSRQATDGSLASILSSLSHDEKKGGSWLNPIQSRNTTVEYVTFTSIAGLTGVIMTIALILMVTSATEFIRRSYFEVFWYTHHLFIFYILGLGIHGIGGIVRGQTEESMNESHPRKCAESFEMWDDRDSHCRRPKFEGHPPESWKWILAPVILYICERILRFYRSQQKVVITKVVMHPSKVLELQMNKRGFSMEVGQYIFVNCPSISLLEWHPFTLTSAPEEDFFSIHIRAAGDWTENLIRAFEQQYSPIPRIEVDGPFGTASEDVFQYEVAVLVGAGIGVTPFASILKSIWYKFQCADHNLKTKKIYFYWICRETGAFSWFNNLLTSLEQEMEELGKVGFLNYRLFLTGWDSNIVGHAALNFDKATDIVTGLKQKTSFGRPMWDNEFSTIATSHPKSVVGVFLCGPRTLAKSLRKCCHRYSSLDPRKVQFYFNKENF

Estrogen receptor beta = Estrogen receptor beta (Homo sapiens, UniProt Q92731); assay: blockers of SRC-3 recruitment to ERβ – biochemical, ELISA, streptavidin-HRP readout, orthogonal assay, confirmation (AID 1060)
Chain of Estrogen receptor beta (Q92731 whole entry): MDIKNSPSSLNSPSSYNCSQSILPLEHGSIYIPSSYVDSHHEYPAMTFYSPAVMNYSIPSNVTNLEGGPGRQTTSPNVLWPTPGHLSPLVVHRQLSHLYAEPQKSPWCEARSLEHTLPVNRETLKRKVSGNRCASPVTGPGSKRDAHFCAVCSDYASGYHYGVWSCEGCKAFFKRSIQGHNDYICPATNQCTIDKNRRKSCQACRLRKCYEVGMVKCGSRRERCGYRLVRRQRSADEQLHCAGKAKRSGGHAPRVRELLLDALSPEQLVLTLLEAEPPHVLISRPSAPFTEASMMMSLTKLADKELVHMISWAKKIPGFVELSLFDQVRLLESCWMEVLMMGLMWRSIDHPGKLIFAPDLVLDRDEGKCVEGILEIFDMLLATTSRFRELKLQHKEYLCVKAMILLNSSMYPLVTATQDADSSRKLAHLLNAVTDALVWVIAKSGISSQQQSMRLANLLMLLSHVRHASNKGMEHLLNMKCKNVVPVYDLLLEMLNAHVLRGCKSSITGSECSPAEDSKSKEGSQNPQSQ

NADPH oxidase 1 [18] = molecular target: T4, NADPH oxidase 1; assay: Luminescence-based cell-based dose response assay to identify inhibitors of NADPH oxidase 1 (NOX1).; type: functional
[19] = molecular target: T5, Rac GTPase-activating protein 1 (Homo sapiens, UniProt Q9H0H5); assay: blockers of MgcRacGAP-driven Rac1 GTP hydrolysis – biochemical, ADP Hunter fluorescence, primary and confirmatory, confirmation (AID 624330); type: functional
T5 sequence (Q9H0H5 whole entry): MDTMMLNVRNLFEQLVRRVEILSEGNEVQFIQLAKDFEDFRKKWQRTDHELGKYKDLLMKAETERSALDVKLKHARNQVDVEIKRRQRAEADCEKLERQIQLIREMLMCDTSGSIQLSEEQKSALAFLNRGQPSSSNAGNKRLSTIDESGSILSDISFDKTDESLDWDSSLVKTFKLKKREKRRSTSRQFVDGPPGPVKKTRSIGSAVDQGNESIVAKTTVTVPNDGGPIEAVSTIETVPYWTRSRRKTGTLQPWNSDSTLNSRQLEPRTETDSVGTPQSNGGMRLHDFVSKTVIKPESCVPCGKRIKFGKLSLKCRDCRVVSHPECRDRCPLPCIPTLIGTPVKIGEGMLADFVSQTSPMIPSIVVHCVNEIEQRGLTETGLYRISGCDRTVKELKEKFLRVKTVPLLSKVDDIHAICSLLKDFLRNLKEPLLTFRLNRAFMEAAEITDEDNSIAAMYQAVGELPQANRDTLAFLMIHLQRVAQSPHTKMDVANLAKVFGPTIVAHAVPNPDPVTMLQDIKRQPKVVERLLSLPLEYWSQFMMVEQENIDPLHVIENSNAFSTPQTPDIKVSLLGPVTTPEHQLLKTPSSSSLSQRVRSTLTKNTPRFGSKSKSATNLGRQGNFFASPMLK

For O=C1Nc2ccc(F)cc2/C1=C1/Nc2ccc(Br)cc2C1=O, the IC50 (Danio rerio) was 0.35 µM (not active).
In the case of O=C(Nc1nc(=O)c2ccccc2s1)c1ccc(Cl)cc1, the EC50 [1] is reported as > 38 µM (not active), the EC50 [2] is reported as > 150 µM (inactive) and the EC50 [3] is reported as 0.84 µM (active).
For Cc1ccc(-n2cc(CNCCn3nc(C)cc3C)c(-c3ccc(F)cc3)n2)cc1, the CC50 [4] was 23.5 µM (active), the CC50 [5] was > 40 µM (active) and the IC50 [6] was > 35 µM (not active). For the same molecule, the IC50 [7] was 10.6 µM (not active) and the IC50 (cells) was 4.38 µM (active).
In the case of Cc1nc2c(=O)n(C)c(=O)n(C)c2nc1Cl, the CC50 [8] is reported as 7.41 µM (active), the CC50 [4] is reported as 12.1 µM (active) and the EC50 [9] is reported as 14.3 µM (active). The AC50 [10] was 32.9 µM (active), the IC50 [11] was 1.37 µM (active) and the IC50 [12] was 4.73 µM (active). For the same molecule, the AC50 [13] was 17.3 µM (active), the CC50 [14] was 10.6 µM (active) and the EC50 (Protein RecA) was 8.48 µM (active). The IC50 (cells) was 6.22 µM (active) and the AC50 (Paired box protein Pax-8) was 8.88 µM (active).
With Cc1sc2ncn(CC(=O)c3cc(C)n(Cc4ccccc4)c3C)c(=O)c2c1C the EC50 [15] was > 30 µM (not active).
With O=C(/C=C/c1ccc(Cl)cc1)NC(=S)Nc1ccc(NC(=O)c2ccco2)cc1 the IC50 (Galanin receptor type 2) was 6.76 µM (active).
In the case of O=C(O)C1CCCCC1C(=O)Nc1nc(-c2ccc(Cl)s2)cs1 (stereo not given), the AC50 (Caspase-6) is reported as 32.9 µM (active) and the IC50 [16] is reported as 38.5 µM (active).
For CC(=O)[C@H]1[C@H]2[C@H](C(=O)[C@@H]3OC[C@H]2O3)[C@@H]2c3ccccc3C=CN12, the AC50 (Cytochrome P450 2C19) was 31.6 µM (inconclusive) and the AC50 (Cytochrome P450 2C9) was 31.6 µM (inconclusive).
In the case of COc1ccc(NC(=O)Nc2ccc(N(C)C)cc2)cc1, the IC50 (NADPH oxidase 1 [17]) is reported as 0.432 µM (active), the IC50 (Estrogen receptor beta) is reported as 14.4 µM (not active) and the IC50 (NADPH oxidase 1 [18]) is reported as 0.156 µM (active). The IC50 [19] was 23.5 µM (active).
